Data reported in patent US20030203969A1, “Pharmaceutically active aromatic guanylhydrazones” (priority 2000, published 2003).

Key:
P3HR-1 cells = test: Compound toxicity in P3HR-1 cells (Cell Titer Aqueous One); assay type: cell-based, human; conditions: P3HR1 cells; read-out: TC50 (the source's name)
Protocol: Human P3HR-1 cells are latently infected with EBV. Culturing these cells in the presence of phorbol ester induces a lytic infection cycle, resulting in stimulation of viral replication within the cells. Compound efficacy in this assay is determined using TaqMan PCR technology, and compound toxicity is measured by addition of Promega's Cell Titer Aqueous One Solution (metabolic dye).
6. Duplicate plates are set up plating media in place of TPA for evaluation of compound toxicity.
6. Twenty micorliters of Cell Titer Aqueous One Solution (Promega) is added to each well of the toxicity plates. Plates are incubated at 37° C. in a humidified CO2 incubator for 4 hours or until sufficient color development has occurred. Plates are read on a VMax microtiter plate reader at a wavelength of 490/650 nm. Toxicity of the test compound is determined by comparing the optical density of test wells with that of control wells.

HHV8 = test: HHV-8 replication in TPA-induced BCBL-1 cells (TaqMan PCR); assay type: cell-based, Human herpesvirus 8
Protocol: The human BCBL-1 cell line is available through the AIDS Reference and Reagent Program (Cat.No. 3233). This cell line was derived from a body cavity-based lymphoma latently infected with HHV-8. Culturing these cells in the presence of phorbol ester induces a lytic infection cycle, resulting in the release of viral particles into the medium. Compound efficacy in this proposed assay is determined using TaqMan PCR technology, and compound toxicity is measured by addition of Promega's Cell Titer Aqueous One Solution (metabolic dye).
7. BCBL-1 cells will be counted by the trypan blue dye exclusion method, and the cell count/ml will be determined. Cells will be pelleted by centrifugation and washed once with PBS to minimize the basal level of virus released from untreated cells which spontaneously enter the lytic cycle and release virus.
8. Cells will be resuspended in fresh media and adjusted to the appropriate cell density. Cells will then be plated in the interior wells of 96-well round-bottom microtiter plates in a volume of 50 μl per well.
9. […]
11. A standard curve prepared from known copy numbers of DNA isolated from BCBL-1 cells and amplified will be run with each plate in order to quantitate the DNA copy number in each original sample. The efficacy of the compound will be determined by comparing DNA copy numbers from test wells with those of control wells.

E. Coli XL-1 blue strain = test: Growth assay for E. coli (optical density at 610 nm); assay type: cell-based; conditions: LB medium, 37° C., one day; read-out: IC50 (μM) E. coli proliferation
Protocol: We used the E. Coli XL-1 blue strain (Stratagene) for the investigation of antibacterial activity. During this experiments LB medium was used for E. coil growth. LB was prepared as follows: 1% trypton (weight/volume), 0.5% Yeast extract (weight/volume), and 1.5% NaCl (weight/volume) were dissolved in water and autoclaved. The media contained the inhibitor at 100 μM, 10 μM, or 1 μM concentrations, respectively.
The assay was performed as follows: bacteria were seeded to 96-well plates containing the respective inhibitors. The bacteria-containing plates were incubated at 37° C. for one day. After incubation time, E. coli growth was assayed by the measurement of the optical density at 610 nm wavelength.

[1] = system: herpes simplex virus type 1 (strain HF); test: HSV-1 cytopathic effect (CPE) inhibition assay in Vero cells (MTS); assay type: cell-based
Description: A virus-induced cytopathic effects (CPE)-inhibition assay procedure using Promega's Cell Titer Aqueous One Solution (MTS, metabolic dye) is employed to evaluate compounds for antiviral activity against herpes simplex virus type 1 (strain HF) in Vero cells (African green monkey cells, ATCC Cat. No. CCL-81). Vero cells are pregrown in 96-well tissue culture plates using Dulbecco's Modified Eagle's Medium (DMEM) supplemented with 10% heat-inactivated fetal bovine serum (FBS), L-glutamine, penicillin, and streptomycin. To each of the replicate cell cultures is added 50 μl of the test drug solution and 50 μl of virus suspension. Cell controls containing medium alone, virus-infected controls containing medium and virus, drug cytotoxicity controls containing medium and each drug concentration, reagent controls containing culture medium only (no cells), and drug calorimetric controls containing drug and medium (no cells) are run simultaneously with the test samples. The plates are incubated at 37° C. in a humidified atmosphere containing 5% CO2 until maximum CPE is observed in the untreated virus control cultures (Day 5). CPE inhibition is determined by a dye (MTS) uptake procedure. […] The purple color of the MTS formazan is then measured spectrophotometrically at 490/650 nm. […]

## CC(=NNC(=N)N)c1cc(NC(=O)CCCCCCCCC(=O)Nc2cc(C(C)=NNC(=N)N)cc(C(C)=NNC(=N)N)c2)cc(C(C)=NNC(=N)N)c1 [Compound 4, N,N′-bis (3,5-diacetylphenyl) decane diamide tetrakis (amidinohydrazone)]
P3HR-1 cells
  CC50: 21800 nM
HHV8; HHV8, BCBL-1 cells
  Comments: Active
HHV8; chronically HHV8-infected BCBL-1 cells
  IC50: 2300 nM
E. Coli XL-1 blue strain
  IC50: 1 µM
[1]; HSV-1, Vero cells
  Comments: Active
[1]; HSV-infected Vero cells, reduces the CPE by 50%
  IC50: 1560 nM
